# Experimental data taken from ChEMBL document CHEMBL5465560, “Selectivity Literature for EUbOPEN Chemogenomic Library” (2024).
# Legend:
# [1] = target: Protein kinase C beta type (Homo sapiens, UniProt P05771); assay: Selectivity interaction (Millipore kinase profiler) EUB0000124b PRKCB; settings: at 10 µM
# [2] = target: Fibroblast growth factor receptor 2 (Homo sapiens) (UniProt P21802); assay: Selectivity interaction (KinomeScan (DiscoverX)) EUB0001079a FGFR2; settings: at 1 µM
# [3] = target: T1, Serine/threonine-protein kinase LATS1 (Homo sapiens) (UniProt O95835); assay: Selectivity interaction (ActivX KiNativ screen (kinase selectivity in THP-1 cell lysates)) EUB0000639a LATS1; format: subcellular; settings: lysate, at 0.04 µM
# T1 sequence (whole entry): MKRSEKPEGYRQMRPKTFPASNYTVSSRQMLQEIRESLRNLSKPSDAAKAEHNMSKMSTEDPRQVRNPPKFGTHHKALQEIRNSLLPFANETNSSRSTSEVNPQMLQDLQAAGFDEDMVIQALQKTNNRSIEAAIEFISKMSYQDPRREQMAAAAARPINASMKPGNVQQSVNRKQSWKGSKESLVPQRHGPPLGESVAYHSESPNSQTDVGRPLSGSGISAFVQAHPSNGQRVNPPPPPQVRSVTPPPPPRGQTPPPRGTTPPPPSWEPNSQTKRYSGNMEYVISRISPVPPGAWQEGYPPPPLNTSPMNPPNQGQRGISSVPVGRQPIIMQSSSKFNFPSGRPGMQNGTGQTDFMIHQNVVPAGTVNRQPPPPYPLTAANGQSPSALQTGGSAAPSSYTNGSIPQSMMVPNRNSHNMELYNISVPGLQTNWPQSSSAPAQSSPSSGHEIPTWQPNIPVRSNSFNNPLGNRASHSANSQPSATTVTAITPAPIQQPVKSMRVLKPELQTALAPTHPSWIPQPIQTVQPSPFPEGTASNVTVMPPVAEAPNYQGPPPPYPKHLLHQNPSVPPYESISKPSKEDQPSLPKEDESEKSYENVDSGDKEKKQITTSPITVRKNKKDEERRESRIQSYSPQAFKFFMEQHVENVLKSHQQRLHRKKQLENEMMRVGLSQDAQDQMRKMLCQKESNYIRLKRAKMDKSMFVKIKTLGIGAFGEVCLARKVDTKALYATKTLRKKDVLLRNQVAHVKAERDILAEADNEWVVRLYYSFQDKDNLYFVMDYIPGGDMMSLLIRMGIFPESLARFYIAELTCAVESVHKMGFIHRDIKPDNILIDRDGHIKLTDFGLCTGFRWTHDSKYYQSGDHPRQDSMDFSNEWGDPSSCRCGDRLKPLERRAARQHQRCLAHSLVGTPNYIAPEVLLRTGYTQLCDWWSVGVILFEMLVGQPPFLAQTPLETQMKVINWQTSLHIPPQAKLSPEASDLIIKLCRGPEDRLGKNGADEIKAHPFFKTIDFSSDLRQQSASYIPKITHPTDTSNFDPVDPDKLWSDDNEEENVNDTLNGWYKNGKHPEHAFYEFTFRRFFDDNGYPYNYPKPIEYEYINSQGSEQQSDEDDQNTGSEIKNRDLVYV
# [4] = target: Non-receptor tyrosine-protein kinase TYK2 (Homo sapiens, UniProt P29597); assay: Selectivity interaction (KinomeScan (DiscoverX)) EUB0000595a TYK2; settings: at 10 µM
# [5] = target: Receptor-type tyrosine-protein kinase FLT3 (Homo sapiens) (UniProt P36888); assay: Selectivity interaction (Ambit KINOMEscan and KiNATiv profiling in Jurkat cells) EUB0000090b FLT3; format: cell-based; settings: at 1 µM
# [6] = system: Epidermal growth factor receptor (Homo sapiens), P00533 [UNDEFINED MUTATION]; settings: at 10 µM
# [7] = target: Serine/threonine-protein kinase 25 (Homo sapiens) (UniProt O00506); assay: Selectivity interaction (ActivX KiNativ screen (ex vivo kinase selectivity in human PBMCs)) EUB0001619a STK25; format: cell-based; settings: PBMC, at 1 µM
# [8] = target: T2, Cytoplasmic tyrosine-protein kinase BMX (Homo sapiens) (UniProt P51813); assay: Selectivity interaction (Kinase panel (Z-LYTE Assay)) EUB0001632a BMX; settings: at 10 µM
# T2 sequence (whole entry): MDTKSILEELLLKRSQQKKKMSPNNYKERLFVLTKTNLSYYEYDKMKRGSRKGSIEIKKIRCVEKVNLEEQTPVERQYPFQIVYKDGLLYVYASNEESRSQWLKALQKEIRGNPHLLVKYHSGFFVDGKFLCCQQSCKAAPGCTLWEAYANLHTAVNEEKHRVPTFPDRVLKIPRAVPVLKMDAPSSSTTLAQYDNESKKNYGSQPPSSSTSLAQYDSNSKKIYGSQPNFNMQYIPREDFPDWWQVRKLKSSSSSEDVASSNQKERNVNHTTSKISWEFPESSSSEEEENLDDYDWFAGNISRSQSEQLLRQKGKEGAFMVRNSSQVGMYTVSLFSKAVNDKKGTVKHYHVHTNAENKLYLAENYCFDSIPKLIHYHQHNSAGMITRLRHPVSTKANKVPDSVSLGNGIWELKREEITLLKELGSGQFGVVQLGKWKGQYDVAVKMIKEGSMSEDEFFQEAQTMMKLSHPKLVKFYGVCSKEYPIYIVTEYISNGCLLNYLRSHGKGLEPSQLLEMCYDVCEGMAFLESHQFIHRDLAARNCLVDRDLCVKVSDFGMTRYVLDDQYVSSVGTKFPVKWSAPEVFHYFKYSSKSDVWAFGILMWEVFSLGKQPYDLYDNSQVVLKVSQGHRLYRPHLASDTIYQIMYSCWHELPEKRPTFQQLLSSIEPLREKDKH
# [9] = system: Dual specificity mitogen-activated protein kinase kinase 1 (Homo sapiens), Q02750 [S218D,S222D]; assay: Selectivity interaction (LanthaScreen Eu Kinase Binding Assay) EUB0001632a MAP2K1; settings: at 10 µM
# Dual specificity mitogen-activated protein kinase kinase 1 (Homo sapiens), Q02750 [S218D,S222D], sequence (Q02750 whole entry S218D/S222D): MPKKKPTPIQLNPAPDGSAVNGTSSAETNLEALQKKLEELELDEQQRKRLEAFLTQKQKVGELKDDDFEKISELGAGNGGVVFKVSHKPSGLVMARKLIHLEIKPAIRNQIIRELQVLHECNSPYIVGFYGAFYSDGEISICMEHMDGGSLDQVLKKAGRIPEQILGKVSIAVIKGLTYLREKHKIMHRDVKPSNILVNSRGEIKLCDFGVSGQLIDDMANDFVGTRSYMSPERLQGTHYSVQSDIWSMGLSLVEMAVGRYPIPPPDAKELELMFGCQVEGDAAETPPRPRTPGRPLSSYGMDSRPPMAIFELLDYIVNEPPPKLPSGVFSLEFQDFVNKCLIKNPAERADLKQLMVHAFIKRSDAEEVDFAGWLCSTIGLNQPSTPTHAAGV
# Non-receptor tyrosine-protein kinase TYK2, sequence (P29597 whole entry): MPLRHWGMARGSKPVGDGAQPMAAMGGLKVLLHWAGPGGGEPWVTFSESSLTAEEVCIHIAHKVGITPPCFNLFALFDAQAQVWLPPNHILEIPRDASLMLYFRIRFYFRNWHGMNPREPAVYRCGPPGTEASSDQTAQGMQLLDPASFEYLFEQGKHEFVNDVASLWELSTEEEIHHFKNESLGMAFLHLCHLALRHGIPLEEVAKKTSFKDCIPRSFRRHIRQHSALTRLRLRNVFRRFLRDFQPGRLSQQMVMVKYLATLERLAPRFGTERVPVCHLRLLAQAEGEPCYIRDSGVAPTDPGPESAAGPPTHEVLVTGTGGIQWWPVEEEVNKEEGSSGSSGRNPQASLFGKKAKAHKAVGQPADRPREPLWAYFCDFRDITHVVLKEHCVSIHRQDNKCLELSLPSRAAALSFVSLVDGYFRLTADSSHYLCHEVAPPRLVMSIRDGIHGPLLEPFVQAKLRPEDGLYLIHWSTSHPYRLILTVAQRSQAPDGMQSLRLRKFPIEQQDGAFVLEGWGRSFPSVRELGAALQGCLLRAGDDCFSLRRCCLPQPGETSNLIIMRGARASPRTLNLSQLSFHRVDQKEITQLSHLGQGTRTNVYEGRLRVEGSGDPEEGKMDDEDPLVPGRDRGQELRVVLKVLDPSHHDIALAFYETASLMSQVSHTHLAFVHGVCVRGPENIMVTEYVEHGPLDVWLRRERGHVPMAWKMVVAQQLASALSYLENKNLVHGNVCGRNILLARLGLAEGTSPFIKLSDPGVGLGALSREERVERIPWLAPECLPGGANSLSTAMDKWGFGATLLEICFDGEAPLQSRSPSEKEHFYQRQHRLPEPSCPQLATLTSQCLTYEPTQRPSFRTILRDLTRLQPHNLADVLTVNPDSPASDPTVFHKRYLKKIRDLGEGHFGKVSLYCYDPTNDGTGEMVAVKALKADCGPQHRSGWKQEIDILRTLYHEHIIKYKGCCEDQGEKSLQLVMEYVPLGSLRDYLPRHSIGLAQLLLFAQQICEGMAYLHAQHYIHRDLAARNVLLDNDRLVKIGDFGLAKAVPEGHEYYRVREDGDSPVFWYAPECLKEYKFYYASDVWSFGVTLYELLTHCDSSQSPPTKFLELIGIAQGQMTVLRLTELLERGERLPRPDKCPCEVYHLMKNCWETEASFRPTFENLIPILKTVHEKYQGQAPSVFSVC
# Protein kinase C beta type, sequence (P05771 2-671 limits assumed): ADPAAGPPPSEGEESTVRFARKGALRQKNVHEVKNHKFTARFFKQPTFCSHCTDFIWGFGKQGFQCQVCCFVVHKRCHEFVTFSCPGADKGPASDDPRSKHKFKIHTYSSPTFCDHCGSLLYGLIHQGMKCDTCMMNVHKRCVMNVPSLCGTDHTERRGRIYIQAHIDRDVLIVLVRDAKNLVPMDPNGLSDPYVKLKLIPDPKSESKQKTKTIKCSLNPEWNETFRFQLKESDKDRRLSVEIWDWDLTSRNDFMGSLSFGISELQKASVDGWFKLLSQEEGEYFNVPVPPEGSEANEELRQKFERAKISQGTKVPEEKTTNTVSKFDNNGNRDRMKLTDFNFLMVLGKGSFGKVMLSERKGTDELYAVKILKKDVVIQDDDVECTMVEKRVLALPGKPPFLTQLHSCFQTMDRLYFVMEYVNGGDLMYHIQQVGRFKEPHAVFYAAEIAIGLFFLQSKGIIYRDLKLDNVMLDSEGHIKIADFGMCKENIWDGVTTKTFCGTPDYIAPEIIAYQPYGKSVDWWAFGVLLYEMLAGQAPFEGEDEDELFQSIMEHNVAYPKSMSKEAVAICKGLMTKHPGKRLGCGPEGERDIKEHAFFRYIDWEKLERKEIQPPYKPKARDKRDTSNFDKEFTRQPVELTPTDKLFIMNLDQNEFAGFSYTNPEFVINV
# Epidermal growth factor receptor (Homo sapiens), P00533 [UNDEFINED MUTATION], sequence (P00533 whole entry, looked up, change not shown): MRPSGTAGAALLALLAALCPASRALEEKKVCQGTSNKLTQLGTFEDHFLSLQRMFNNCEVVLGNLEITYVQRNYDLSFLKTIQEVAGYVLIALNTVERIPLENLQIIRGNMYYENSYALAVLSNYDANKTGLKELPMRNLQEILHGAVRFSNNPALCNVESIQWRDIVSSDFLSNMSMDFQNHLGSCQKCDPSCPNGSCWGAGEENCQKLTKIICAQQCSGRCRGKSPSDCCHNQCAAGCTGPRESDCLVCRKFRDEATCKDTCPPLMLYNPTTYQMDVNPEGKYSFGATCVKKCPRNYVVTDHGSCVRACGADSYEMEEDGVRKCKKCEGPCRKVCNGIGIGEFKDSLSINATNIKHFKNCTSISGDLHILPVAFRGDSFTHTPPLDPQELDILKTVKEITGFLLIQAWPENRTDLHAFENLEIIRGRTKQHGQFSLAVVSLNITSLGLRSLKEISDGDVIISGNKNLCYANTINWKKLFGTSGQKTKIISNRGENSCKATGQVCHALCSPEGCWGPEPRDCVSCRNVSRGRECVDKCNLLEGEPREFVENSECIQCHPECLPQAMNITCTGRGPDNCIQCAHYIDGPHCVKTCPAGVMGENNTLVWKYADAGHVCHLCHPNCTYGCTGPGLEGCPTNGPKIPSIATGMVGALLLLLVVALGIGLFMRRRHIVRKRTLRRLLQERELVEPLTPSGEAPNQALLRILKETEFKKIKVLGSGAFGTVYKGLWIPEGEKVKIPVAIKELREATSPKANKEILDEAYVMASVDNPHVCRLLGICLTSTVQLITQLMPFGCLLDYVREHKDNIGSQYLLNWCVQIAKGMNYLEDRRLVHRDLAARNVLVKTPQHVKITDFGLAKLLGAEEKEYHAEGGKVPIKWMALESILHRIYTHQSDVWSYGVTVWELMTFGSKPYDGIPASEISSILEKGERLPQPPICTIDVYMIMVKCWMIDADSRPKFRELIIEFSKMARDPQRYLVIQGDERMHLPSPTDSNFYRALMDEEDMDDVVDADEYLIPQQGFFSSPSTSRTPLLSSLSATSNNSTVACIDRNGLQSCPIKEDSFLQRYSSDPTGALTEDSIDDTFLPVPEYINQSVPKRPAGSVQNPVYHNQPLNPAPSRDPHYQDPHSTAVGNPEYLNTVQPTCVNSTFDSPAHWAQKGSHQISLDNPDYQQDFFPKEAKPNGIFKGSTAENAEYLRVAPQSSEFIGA
# Serine/threonine-protein kinase 25 (Homo sapiens), sequence (O00506 whole entry, looked up): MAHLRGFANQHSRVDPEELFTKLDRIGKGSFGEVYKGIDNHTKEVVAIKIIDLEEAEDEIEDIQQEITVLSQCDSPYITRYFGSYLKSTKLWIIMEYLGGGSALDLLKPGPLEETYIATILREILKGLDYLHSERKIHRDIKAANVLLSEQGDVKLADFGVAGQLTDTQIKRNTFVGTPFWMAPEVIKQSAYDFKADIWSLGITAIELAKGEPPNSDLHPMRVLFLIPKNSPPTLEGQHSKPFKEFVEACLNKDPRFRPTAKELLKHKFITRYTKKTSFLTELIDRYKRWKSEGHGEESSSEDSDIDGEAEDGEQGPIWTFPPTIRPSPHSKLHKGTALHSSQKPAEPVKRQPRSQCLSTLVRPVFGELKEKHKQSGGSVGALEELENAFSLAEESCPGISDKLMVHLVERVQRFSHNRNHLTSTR
# Receptor-type tyrosine-protein kinase FLT3 (Homo sapiens), sequence (P36888 whole entry): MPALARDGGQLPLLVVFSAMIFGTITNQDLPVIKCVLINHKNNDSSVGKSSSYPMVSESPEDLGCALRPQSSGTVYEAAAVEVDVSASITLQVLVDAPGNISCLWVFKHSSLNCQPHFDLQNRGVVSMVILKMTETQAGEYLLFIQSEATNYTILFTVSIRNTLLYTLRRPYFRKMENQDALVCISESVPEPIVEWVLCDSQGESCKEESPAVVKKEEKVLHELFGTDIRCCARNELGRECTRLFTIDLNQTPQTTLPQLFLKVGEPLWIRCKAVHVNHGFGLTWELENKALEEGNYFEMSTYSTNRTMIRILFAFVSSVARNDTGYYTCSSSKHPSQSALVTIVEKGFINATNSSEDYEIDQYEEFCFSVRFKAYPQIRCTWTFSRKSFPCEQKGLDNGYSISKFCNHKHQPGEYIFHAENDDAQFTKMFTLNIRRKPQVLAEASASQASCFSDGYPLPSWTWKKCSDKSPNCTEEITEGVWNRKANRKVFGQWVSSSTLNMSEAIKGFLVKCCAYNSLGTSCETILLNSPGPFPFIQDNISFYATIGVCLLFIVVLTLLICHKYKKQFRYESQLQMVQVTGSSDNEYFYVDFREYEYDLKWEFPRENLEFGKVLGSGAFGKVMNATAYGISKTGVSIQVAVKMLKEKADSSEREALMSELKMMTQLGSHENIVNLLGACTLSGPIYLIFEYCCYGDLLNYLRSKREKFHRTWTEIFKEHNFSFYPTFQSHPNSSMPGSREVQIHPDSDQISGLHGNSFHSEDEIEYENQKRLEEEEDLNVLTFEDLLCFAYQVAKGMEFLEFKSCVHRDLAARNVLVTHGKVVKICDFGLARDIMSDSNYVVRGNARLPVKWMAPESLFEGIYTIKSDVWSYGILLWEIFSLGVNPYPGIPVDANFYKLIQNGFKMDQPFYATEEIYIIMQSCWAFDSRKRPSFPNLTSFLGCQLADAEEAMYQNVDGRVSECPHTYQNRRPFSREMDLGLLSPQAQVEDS
structure (smiles),measurement,setting,value
CC(=O)Nc1cccc(-n2c(=O)n(C3CC3)c(=O)c3c(Nc4ccc(I)cc4F)n(C)c(=O)c(C)c32)c1,% of control,[1],102%
Nc1cnc(N2CCc3cc(S(=O)(=O)Nc4c(F)cc(Cl)cc4F)cc(N4CCCC4=O)c32)nc1 [TP-020n],% of control,[2],100%
CC[C@@H]1[C@H](F)C(=O)N[C@@H]1COc1nccc2cc(C(N)=O)c(OC)cc12 [ZIMLOVISERTIB],% of inhibition,[3],-18.5%
COCC(=O)NC/C=C/c1ccc2ncnc(Nc3ccc(Oc4ccc(C)nc4)c(C)c3)c2c1 [CP-724714],% of control,[4],100%
CN(C)C/C=C/C(=O)Nc1ccc(C(=O)N2CCCC(Nc3ncc(Cl)c(-c4c[nH]c5ccccc45)n3)C2)cc1 (centres undefined),% of control,[5],94%
Cc1cc([C@@H](C)Nc2ccccc2C(=O)O)c2nc(N3CCOCC3)cc(=O)n2c1 [AZD-6482],% of control,[6],100%
N#Cc1cccc(-c2c[nH]c3ncnc(N4CCOCC4)c23)c1,% of inhibition,[7],61%
Cn1cc(-n2cnc3c(NCc4nc5cc(Cl)c(Cl)cc5[nH]4)nc(N4CCOCC4)nc32)cn1,% of control,[8],2.67%
same,% of inhibition,[9],-20.2%
